pEC50: −log10 of the molar value.

This note sets out measurements from ChEMBL document CHEMBL1255530, “3D-QSAR CoMFA study of benzoxazepine derivatives as mGluR5 positive allosteric modulators” (Bioorg Med Chem Lett, 2010).

The target of this assay is Metabotropic glutamate receptor 5 (Rattus norvegicus, UniProt P31424). The assay is described as follows: Positive allosteric modulation of rat mGluR5 expressed in HEK293 cells.
Chain of Metabotropic glutamate receptor 5 (P31424 whole entry): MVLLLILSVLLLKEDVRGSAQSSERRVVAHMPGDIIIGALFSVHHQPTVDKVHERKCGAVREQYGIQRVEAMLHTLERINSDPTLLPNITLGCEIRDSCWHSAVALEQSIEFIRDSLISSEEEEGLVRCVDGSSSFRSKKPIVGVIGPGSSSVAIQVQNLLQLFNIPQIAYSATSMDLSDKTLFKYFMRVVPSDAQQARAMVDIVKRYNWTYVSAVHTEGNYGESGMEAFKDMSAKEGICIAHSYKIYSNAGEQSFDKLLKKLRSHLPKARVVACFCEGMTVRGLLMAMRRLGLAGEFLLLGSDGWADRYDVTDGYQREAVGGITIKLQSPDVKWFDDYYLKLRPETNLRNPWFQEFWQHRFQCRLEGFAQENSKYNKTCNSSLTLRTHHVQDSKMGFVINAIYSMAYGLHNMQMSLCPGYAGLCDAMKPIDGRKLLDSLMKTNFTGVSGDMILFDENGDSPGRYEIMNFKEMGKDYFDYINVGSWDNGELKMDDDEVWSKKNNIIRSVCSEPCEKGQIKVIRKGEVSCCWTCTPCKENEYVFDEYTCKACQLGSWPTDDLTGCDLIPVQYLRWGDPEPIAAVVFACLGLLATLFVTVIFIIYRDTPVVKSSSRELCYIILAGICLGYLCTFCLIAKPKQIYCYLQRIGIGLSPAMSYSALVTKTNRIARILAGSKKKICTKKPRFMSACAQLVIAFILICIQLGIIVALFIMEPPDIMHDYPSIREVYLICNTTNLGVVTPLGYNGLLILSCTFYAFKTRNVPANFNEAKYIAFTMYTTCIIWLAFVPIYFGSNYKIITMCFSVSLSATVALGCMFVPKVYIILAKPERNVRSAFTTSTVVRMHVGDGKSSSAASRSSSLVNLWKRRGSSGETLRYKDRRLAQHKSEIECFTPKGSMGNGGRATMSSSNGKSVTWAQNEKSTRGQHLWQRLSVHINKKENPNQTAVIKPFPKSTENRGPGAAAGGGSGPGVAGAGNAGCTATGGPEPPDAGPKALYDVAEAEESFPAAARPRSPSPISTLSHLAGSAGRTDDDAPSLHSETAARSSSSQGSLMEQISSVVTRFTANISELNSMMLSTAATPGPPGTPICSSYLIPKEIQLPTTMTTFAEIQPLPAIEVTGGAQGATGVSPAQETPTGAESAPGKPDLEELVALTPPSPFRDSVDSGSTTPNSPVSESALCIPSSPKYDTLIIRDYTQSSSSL
Usually pEC50 stands for −log10 of the EC50, conventionally taken in molar units. A higher pEC50 goes with a small EC50. Regarding `CCCCSc1nnc2c(n1)O[C@@H](CC)N(C(C)=O)c1ccccc1-2`, the pEC50 was 5.40.

On to `CCSc1nnc2c(n1)O[C@@H](c1ccc(Cl)cc1)N(C(C)=O)c1ccccc1-2`, for which the pEC50 was 6.17.

As for `CCSc1nnc2c(n1)O[C@@H](c1ccc(OC(C)=O)cc1)N(C(C)=O)c1ccccc1-2`, the pEC50 was 6.09.

In turn, `CCC(=O)Oc1ccc([C@@H]2Oc3nc(SC)nnc3-c3ccccc3N2C(=O)CC)cc1` gave a pEC50 of 5.44.

Compound `CCSc1nnc2c(n1)O[C@@H](c1cccc(C)c1OC(C)=O)N(C(C)=O)c1ccccc1-2` showed a pEC50 of 5.55.

In turn, `CCSc1nnc2c(n1)O[C@@H](c1ccc(N(C)C)cc1)N(C(C)=O)c1ccccc1-2` had a pEC50 of 5.37.

`C=CCSc1nnc2c(n1)O[C@@H](c1ccccn1)N(C(=O)CC)c1ccccc1-2` showed a pEC50 of 6.36.

On to `CCSc1nnc2c(n1)O[C@@H](/C=C/c1ccco1)N(C(C)=O)c1ccccc1-2`, for which the pEC50 is 5.93.

In turn, `C=CCSc1nnc2c(n1)O[C@@H](c1cccs1)N(C(=O)CC)c1ccccc1-2` showed a negative-log EC50 (pEC50) of 7.24.

Regarding `CCSc1nnc2c(n1)O[C@@H](c1cc(Br)ccc1OC)N(C(C)=O)c1ccccc1-2`, the pEC50 is 6.92.

The compound `CCCC(=O)N1c2ccccc2-c2nnc(SCC)nc2O[C@H]1c1cccs1` gave a pEC50 of 6.58.

`CCOc1cc([C@@H]2Oc3nc(SC)nnc3-c3ccccc3N2C(=O)CC)ccc1OC(=O)CC` showed a pEC50 of 5.55.

The compound `CCOC(=O)COc1ccccc1[C@@H]1Oc2nc(SC)nnc2-c2ccccc2N1C(=O)CC` had a pEC50 of 5.66.

Consider `CCCCOc1ccccc1[C@@H]1Oc2nc(SC)nnc2-c2ccccc2N1C(=O)CC`, for which the negative-log EC50 (pEC50) was 5.43.

Compound `CCCSc1nnc2c(n1)O[C@@H](c1ccccc1F)N(C(=O)CC)c1ccccc1-2` gave a pEC50 of 6.19.

As for `CCCC(=O)N1c2ccccc2-c2nnc(SC)nc2O[C@H]1c1cccnc1`, the pEC50 is 5.41.

On to `CCCC(=O)N1c2ccccc2-c2nnc(SC)nc2O[C@H]1c1sccc1C`, for which the negative-log EC50 (pEC50) was 5.73.

In the case of `CCCSc1nnc2c(n1)O[C@@H](CC)N(C(C)=O)c1ccccc1-2`, the pEC50 was 5.17.

Regarding `CCSc1nnc2c(n1)O[C@@H](C)N(C(C)=O)c1ccccc1-2`, the pEC50 is 4.86.

The compound `COc1ccc([C@@H]2Oc3nc(SC)nnc3-c3ccccc3N2C(C)=O)cc1` showed a pEC50 of 5.56.

Regarding `CSc1nnc2c(n1)O[C@@H](c1ccccc1F)N(C(C)=O)c1ccccc1-2`, the pEC50 is 5.46.

Compound `C=CCSc1nnc2c(n1)O[C@@H](c1ccc(C)s1)N(C(C)=O)c1ccccc1-2` showed a pEC50 of 6.48.

`CSc1nnc2c(n1)O[C@@H](c1ccc(Br)cc1)N(C(C)=O)c1ccccc1-2` showed a pEC50 of 5.82.

The compound `CCOc1ccccc1[C@@H]1Oc2nc(SC)nnc2-c2ccccc2N1C(C)=O` showed a pEC50 of 5.91.

As to `CSc1nnc2c(n1)O[C@@H](c1ccc(Cl)cc1)N(C(C)=O)c1ccccc1-2`, the pEC50 is 5.68.

On to `CCSc1nnc2c(n1)O[C@@H](c1cccn1C)N(C(=O)CC)c1ccccc1-2`, for which the pEC50 is 5.90.

`CCSc1nnc2c(n1)O[C@@H](c1ccc(OC)c(Br)c1)N(C(C)=O)c1ccccc1-2` gave a pEC50 of 6.02.

For the compound `CCSc1nnc2c(n1)O[C@@H](c1ccc(OC)cc1OC)N(C(C)=O)c1ccccc1-2`, the pEC50 is 6.31.

`CCSc1nnc2c(n1)O[C@@H](c1ccc(OCc3ccccc3)cc1)N(C(C)=O)c1ccccc1-2` showed a pEC50 of 5.22.

Compound `CCOc1cc([C@@H]2Oc3nc(SCC)nnc3-c3ccccc3N2C(C)=O)ccc1OC(C)=O` had a pEC50 of 5.71.

For the compound `CCSc1nnc2c(n1)O[C@@H](c1cc(Cl)ccc1OC(C)=O)N(C(C)=O)c1ccccc1-2`, the pEC50 was 5.80.
